Experimental findings from the OPERA property sets (Mansouri et al. 2018) are described below.

Each structure is given as a SMILES string. Peptide text beside a SMILES is read from it.

Compound `c1ccc2[nH]nnc2c1` returned a logP of 1.44. Turning to `CC(=O)c1cccc(O)c1`, the log partition coefficient (logP) was found to be 1.39. The logP values of the last two compounds are within 0.2 log units of each other.

For the compound `CCCCCCCCOC(N)=O`, the logP came to 2.84. `CCCCCc1ccc(N)cc1` gave a logP of 3.39. The compound `CN(C=O)c1ccccc1` yielded a logP of 1.09. Regarding `Nc1ccc(-c2ccc(N)cc2)cc1`, the logP was determined as 1.34. On to `c1ccc2c(c1)Cc1ccccc1C2`, for which the logP turned out to be 4.25. The compound `Oc1c(Br)cc(Br)cc1Br` registered a logP of 4.13.

Compound `CN(C)CC/C=C1\c2ccccc2CSc2ccccc21` gave a logP of 4.49.

Compound `CC(=O)Nc1cn[nH]c1` yielded a logP of -0.38.

In the case of `Nc1ccc(S)cc1`, the logP came out at 1.31. In turn, `CN(C)CCc1cccnc1` displayed a logP of 0.82. On to `CC(C)Cl`, for which the logP worked out at 1.9. The same measure for `CC(=O)Nc1ncccn1`: -0.75.

In the case of `Cc1ccccc1C`, the logP came out at 3.12. The same measure for `CCCCCCOc1cccc(NC(=O)OCCN2CCCCC2)c1`: 5.51; for `NC(=O)C(c1ccccc1)c1ccccn1` (stereo unspecified): 0.83. `O=C1NC(=S)NC(=O)C1C(=O)Nc1ccccc1`: the logP was 0.14. Consider `CCOCCOCC`, for which the logP is 0.66. Consider `CCc1ccc(S(N)(=O)=O)cc1`, for which the logP came out at 1.31. The same measure for `Nc1nc2cc(Cl)ccc2[nH]1`: 1.88.

Compound `O=C(O)Cc1ccc2ccccc2c1` came in with a logP of 2.81. On to `COC(=O)C(F)(F)F`, for which the logP is 0.6.

Turning to `N#Cc1cccc(C#N)c1`, the logP worked out at 0.8. The compound `CCC1(c2ccccc2)C(=O)NC(=O)N(C(C)C)C1=O` (stereo unspecified) displayed a logP of 2.58. For the compound `CNC(=O)Oc1cc(C)c(SC)c(C)c1`, the logP was 2.92. `BrC1CCCCC1` yielded a logP of 3.2.

As to `C#CC(C)N(C)C(=O)Nc1ccc(Cl)cc1` (stereo unspecified), the logP turned out to be 3. In turn, `CC(=O)NC(=O)C1CCC1` yielded a logP of -0.4. For `O=C(Nc1ccccc1)NC1CC1`, the logP was determined as 1.65. Turning to `CN(C)N=Nc1nc[nH]c1C(N)=O`, the logP was -0.24. The same measure for `NC(=O)c1ccc(O)cc1`: 0.33; for `N#Cc1cccs1`: 1.27; for `c1ncc2nc[nH]c2n1`: -0.37.

Consider `CC(=O)N[C@@H](CCC(N)=O)C(=O)N[C@@H](Cc1ccccc1)C(N)=O` (Ac-Gln-Phe-NH2), for which the logP was -1.14. The compound `Cc1ccc(Cl)cc1NC1=NCCN1` yielded a logP of 1.83.

For `CC(=O)OCC1=C(C(=O)O)N2C(=O)C(NC(=O)COc3ccccc3)C2SC1` (stereo unspecified), the logP is 0.26.

In turn, `c1ccoc1` yielded a logP of 1.34. The compound `CCN(CC)C(=O)[C@@H]1C=C2c3cccc4[nH]cc(c34)C[C@H]2N(C)C1` yielded a logP of 2.95. Compound `c1ccc(-c2cccnc2)nc1` registered a logP of 1.46.

In the case of `CC1CCC(NC(=O)N(CCCl)N=O)CC1` (stereo unspecified), the logP is 3.3. The same measure for `CN(C)C(=O)c1cccs1`: 0.75.

`CC(=NO)c1cccs1`: the logP was 1.81. `FC(F)(Cl)C(F)(F)Cl` registered a logP of 2.82. Take `Nc1nc(N)nc(-c2ccc(F)cc2)n1`: the logP worked out at 1.61. The compound `CCC(OC(C)=O)C(CC(C)N(C)C)(c1ccccc1)c1ccccc1` (stereo unspecified) yielded a logP of 4.27. The same measure for `CC(=O)c1ccc(OCC(=O)O)cc1`: 0.87; for `Brc1ccc(-c2cc3ccccn3c2)cc1`: 5.43. With `CNC(=O)ON=C(SC)C(=O)N(C)C`, the logP was -0.47.

For `NS(=O)(=O)c1cccc2cccnc12`, the logP is 0.42. In the case of `Cc1ccnc(NS(=O)(=O)c2ccc(N)cc2)n1`, the logP came out at 0.14. The same measure for `CC(=O)Oc1ccccc1Cl`: 2.18. `Cc1cccc(N)c1` registered a logP of 1.4. The same measure for `COc1cccc2c1C(=N)c1c(O)c3c(c(O)c1C2=O)CC(O)(C(=O)CO)CC3OC1CC(N2CCOCC2)C(O)C(C)O1` (stereo unspecified): 1.8; for `COC1C(O)CC(OC2C(O)CC(OC3C(O)CC(OC4CCC5(C)C(CCC6C5CC(OC(C)=O)C5(C)C(C7=CC(=O)OC7)CCC65O)C4)OC3C)OC2C)OC1C` (stereo unspecified): 2.87; for `CN(C)C(N(C)C)=S(I)c1ccccc1Br` (stereo unspecified): 0.06. In the case of `CC(=O)Nc1ccc(OCC(O)CNC(C)C)cc1` (stereo unspecified), the logP is 0.79.

In turn, `Nc1c([N+](=O)[O-])cc(C(F)(F)F)cc1[N+](=O)[O-]` had a logP of 2.29. `N#Cc1ccc(O)cc1` came in with a logP of […].

The compound `Cc1ccccc1C(=O)Nc1cccc(OC(C)C)c1` displayed a logP of 3.66. The same measure for `COc1ccc(C(C)c2ccc(OC)cc2)cc1`: 4.52.

Compound `CNC(=O)c1ccccc1` registered a logP of 0.86.

Compound `c1cc2ccsc2cn1` registered a logP of 1.74. As for `Nc1c2ccccc2nc2ccccc12`, the logP turned out to be 2.74. `CNC(=O)Oc1ccccc1OC` returned a logP of 0.81. For `CCCn1cnc2c(N)ncnc21`, the logP came out at 0.74. The logP values of the last two compounds are within 0.2 log units of each other. `NC(CC12CC3CC(CC(C3)C1)C2)C(=O)O` (stereo unspecified) came in with a logP of 0.43. In turn, `O=S(c1ccccc1)c1ccccc1` showed a logP of 2.06. The compound `O=C(O)COc1cccc(O)c1` showed a logP of 0.76. Compound `CC(C)NCc1cccnc1` displayed a logP of 0.82. Regarding `CCOC(=O)NC`, the lipophilicity (logP) was determined as 0.34. The same measure for `COc1ccc2cccnc2c1`: 2.37; for `CCCCc1ccc(C(=O)O)cc1`: 3.97. `C=C(Br)CC1(C(C)C)C(=O)NC(=O)NC1=O`: the logP came to 1.47.

The compound `CBr` displayed a logP of 1.19. Turning to `O=C(NP(=O)(N1CC1)N1CC1)c1cccc(Br)c1`, the logP came to 1.43. In turn, `Nc1cccc(Br)c1` displayed a logP of 2.1. `CCN(CC)C(C)C(=O)OCn1ncc2c(=O)[nH]cnc21` (stereo unspecified) returned a logP of 0.72. Compound `CCC(=O)OC1(C(=O)CCl)C(C)CC2C3CCC4=CC(=O)C=CC4(C)C3(Cl)C(O)CC21C` (stereo unspecified) registered a logP of 3.28.

For `COc1cccc(OC(=O)N(C)C)c1`, the logP is 1.6. `CCCCCOC(=O)c1cc(O)c(O)c(O)c1`: the logP was 2.67. Compound `O=C1C=CC(=O)C=C1` gave a logP of 0.2. Compound `CCC(O)CC` came in with a logP of 1.21. `CC(=O)c1cccc(C(C)=O)c1` returned a logP of 1.43. In turn, `Cc1ncc([N+](=O)[O-])n1CCNC(=O)OCc1ccccc1` showed a logP of 1.69. In the case of `CC(C)C(=O)NC(CO)C(O)c1ccc([N+](=O)[O-])cc1` (stereo unspecified), the logP worked out at 0.79. The same measure for `CCOc1cn[nH]c1`: 0.8; for `CC(O)C(F)(F)F` (stereo unspecified): 0.71; for `Cc1ccc(NS(=O)(=O)C(F)(F)F)cc1`: 3.6.

Take `Fc1cccc2cccnc12`: the logP came out at 2.19. Compound `O=[N+]([O-])c1cccc(Cl)c1Cl` gave a logP of 3.05.

`CCC1Nc2cc(Cl)c(S(N)(=O)=O)cc2S(=O)(=O)N1` (stereo unspecified): the logP was 0.3. The compound `c1cocn1` gave a logP of 0.12. The same measure for `Cc1cnc2ccccc2c1`: 2.53.

Compound `C=CC(=O)OC` displayed a logP of 0.8. On to `O=c1[nH]c(=O)n([C@H]2C[C@H](O)[C@@H](CO)O2)cc1F`, for which the logP is -1.16.

Compound `O=C(CCCN1CCN(c2ccccn2)CC1)c1ccc(F)cc1` returned a logP of 3.3. `Oc1ccc(Cn2cc[nH]c2=S)cc1F` showed a logP of 1.12.

Regarding `ICCCc1ccccc1`, the logP was determined as 3.9. Turning to `CCc1ccccc1OC(C)=O`, the logP came out at 2.42. Take `CN(C)C(=O)C12CC3CC(CC(C3)C1)C2`: the logP was 2.55. As for `COc1ccc([N+](=O)[O-])cc1N`, the logP worked out at 1.47.

For `Cc1[nH]ncc1[N+](=O)[O-]`, the logP came to 1.02. Turning to `FC(F)(F)Sc1ccccc1`, the logP was found to be 3.57.

Take `CCCCCCCOc1ccccc1NC(=O)OCCN1CCCCC1`: the logP amounted to 5.62. The same measure for `CCOc1ccc(OC(=O)NC)cc1`: 1.63; for `NS(=O)(=O)c1ccc2c(c1)S(=O)(=O)NC=N2`: -0.7. `Oc1ccc(Cl)c2cccnc12` had a logP of 2.88. The same measure for `O=C(O)c1cccs1`: 1.57; for `CCCC(C)C1(CC)C(=O)N=C(S)NC1=O` (stereo unspecified): 2.85; for `O=S(=O)(CF)Nc1ccccc1`: 1.35. The same measure for `CCCCCCn1cc(C)c(=O)[nH]c1=O`: 1.93; for `NC(CO)C(=O)O` (stereo unspecified): -3.07. In the case of `CNS(=O)(=O)c1ccc(N)cc1`, the logP was -0.01. In turn, `CCOC(=O)CC(SP(=S)(OC)OC)C(=O)OCC` (stereo unspecified) gave a logP of 2.36.

Compound `CNC(=O)Oc1cccc(Cl)c1` came in with a logP of 2.03. The same measure for `COc1cccc(COC(=O)N(C)C)c1`: 2.09. In turn, `CCCN1CCCN(CCC)C1=S` returned a logP of 2.83. As to `NC(=O)CCNC(=O)C(F)(F)Cn1ccnc1[N+](=O)[O-]`, the logP was -0.95. For `O=C(O)Cc1ccccc1Nc1c(F)cccc1Cl`, the logP turned out to be 3.8. The same measure for `COc1ccc(NC(=O)NC(=N)N)cc1`: 0.56. The compound `CSc1ncc2ccccc2n1` had a logP of 2.5. The same measure for `O=[N+]([O-])c1ccc(O)c(O)c1`: 1.66; for `Oc1cccc(Br)c1`: 2.63. For the compound `CCCCCSCS(=O)CC(CO)NC(=O)C=Cc1c(C)[nH]c(=O)[nH]c1=O` (stereo unspecified), the logP was 0.6. Compound `O=Cc1cccnc1` gave a logP of 0.29. The same measure for `c1ccc(-n2cnnn2)cc1`: 1.09; for `CC1OC(OC2C(O)CC(OC3C(O)CC(OC4CCC5(C)C(CCC6C5CCC5(C)C(C7COC(=O)C7)CCC65O)C4)OC3C)OC2C)CC(O)C1O` (stereo unspecified): 2.9. `CCCCOP(=O)(OCCCC)Oc1ccccc1` registered a logP of 4.27. `CC(=O)OCC(=O)[C@H]1CC[C@H]2[C@@H]3CCC4=CC(=O)CC[C@]4(C)[C@H]3CC[C@]12C` yielded a logP of 3.08.

`N#Cc1cccc([N+](=O)[O-])c1` registered a logP of 1.17. `CCCCNC` returned a logP of 1.33.

Compound `COCCNC(=S)C(F)(F)Cn1cnc([N+](=O)[O-])n1` came in with a logP of 0.66.

`CC(=O)Nc1cccc(OCC(=O)O)c1` gave a logP of 0.48.

For `CC1(O)CCC2C3CCC4=CC(=O)CCC4(C)C3(F)C(O)CC21C` (stereo unspecified), the logP is 2.38. The same measure for `CN(C)C(=O)Nc1ccc([N+](=O)[O-])cc1`: 1.51.
